These results are taken from patent publication US8568763B2, “Compositions and coatings for delivery of therapeutic agents” (The University of Tennessee Research Foundation, priority 2004, dated 2013).

Data set [1] can be described thus: in vivo. Particulars: pig. How it is done: Preimplantation and postexplantation grafts, blood and tissues were sent to the HPLC Drug Monitoring Laboratory at the University of Texas Medical School at Houston, (6431 Fannin, Suite 6.233, Houston Tex. 77030) for rapamycin level quantification. Analyses were performed using HPLC/UV assays developed by Dr Kimberly L. Napoli, the director of the laboratory (Napoli et al., “Distribution of Sirolimus in Rat Tissue,” Clin. Biochem. 30:135-42 (1997), which is hereby incorporated by reference in its entirety). Whole blood was collected on the first three postoperative days and at euthanasia to quantitate systemic exposure to rapamycin. To confirm elution of rapamycin from the ePTFE and deposition of drug in the native arterial wall, explanted grafts and adjacent iliac artery were snap frozen in liquid nitrogen. The tissues were packaged on dry ice and sent for rapamycin quantification. The kinetics of elution were extrapolated by sacrificing nine animals (n=3 per time point) on postoperative day 7, 14 and 28. These animals were separate from the twenty-two animals used to evaluate for changes in neointimal hyperplasia.
Similar drug levels were detected despite sterilization. Similarly, the rapamycin fraction was detected 18 minutes after instilling the sample onto the HPLC column irrespective of sterilization. […] Levels decreased from 1000 μg preimplatation to 26.7 μg at one week post explantation. Drug (2.9 μg/gm) was detected in the adjacent arterial wall on postoperative day 7 and persisted until euthanasia.

For data set [2] the following is noted: 90 days, rapamycin-eluting stents, Carter et al; cited from earlier work.
For data set [3] the following is noted: blood of patients prophylaxed against kidney transplant rejection; cited from earlier work.

For the compound `CO[C@H]1C[C@@H]2CC[C@@H](C)[C@@](O)(O2)C(=O)C(=O)N2CCCC[C@H]2C(=O)O[C@H]([C@H](C)C[C@@H]2CC[C@@H](O)[C@H](OC)C2)CC(=O)[C@H](C)/C=C(\C)[C@@H](O)[C@@H](OC)C(=O)[C@H](C)C[C@H](C)/C=C/C=C/C=C/1C` [Rapamycin, rapamycin], in data set [1] (mongrel), the concentration at 1 day worked out at 9.3 ± 0.2 ng/mL, the concentration at 2 day worked out at 2 ± 0.1 ng/mL and the concentration at 3 day is 1.9 ± 0.2 ng/mL. The “Rapamycin level in artery” value in data set [1] (mongrel, 7 day) came to 2.9 ± 0.8 μg/gm. Also, the “Rapamycin level in graft” value in data set [1] (mongrel, 14 day) is 12.8 ± 5.0 µg. The “Rapamycin level in graft” value in data set [1] (mongrel, 28 day) was determined as 0.005 ± 0.001 µg. In data set [1], the “Detection of rapamycin in blood” value was “not detectable”, the “Elution of rapamycin off grafts” value is reported as “majority of rapamycin eluted off grafts by one week”, the concentration at 7 day was 2900 ng/g and the concentration at 28 day stood at 25 ng/g. In addition, in data set [2], the “Rapamycin in the arterial wall” value was 0.32 ng/mg. The “current therapeutic rapamycin level” value in data set [3] was 8 to 17 ng/mL.
